Tested on: MV-4-11 cells
Experiment: Gene expression microarray analysis (Affymetrix PrimeView) and GSEA
Assay type: cell-based, human
Parameters: RFU PODN (11730768_x_at) / Fold change /veh PODN (11730768_x_at) / RFU LINC00158 (11744669_a_at) / Fold change /veh LINC00158 (11744669_a_at) / RFU DUSP10 (11751237_a_at) / Fold change /veh DUSP10 (11751237_a_at) / RFU ID3 (11757404_x_at) / Fold change /veh ID3 (11757404_x_at) / RFU PLEKHG5 (11737974_s_at) / Fold change /veh PLEKHG5 (11737974_s_at) / RFU LRRC4B (11730491_at) / Fold change /veh LRRC4B (11730491_at) / RFU GIMAP4 (11747438_a_at) / Fold change /veh GIMAP4 (11747438_a_at) / RFU KRT8 (11758183_x_at) / Fold change /veh KRT8 (11758183_x_at) / RFU CNN1 (11734310_a_at) / Fold change /veh CNN1 (11734310_a_at) / RFU VPS37D (11726825_at) / Fold change /veh VPS37D (11726825_at) / RFU C10orf10 (11716522_x_at) / Fold change /veh C10orf10 (11716522_x_at) / RFU KIR2DL2 /// KIR2DL4 /// KIR2DL5A /// KIR2DL5B /// KIR2DS1 /// KIR2DS2 /// KIR2DS3 /// KIR2DS4 /// KIR3DL3 /// KIR3DL3 /// KIR3DS1 (11738374_at) / Fold change /veh KIR2DL2 /// KIR2DL4 /// KIR2DL5A /// KIR2DL5B /// KIR2DS1 /// KIR2DS2 /// KIR2DS3 /// KIR2DS4 /// KIR3DL3 /// KIR3DL3 /// KIR3DS1 (11738374_at) / RFU C1QL1 (11718748_at) / Fold change /veh C1QL1 (11718748_at) / RFU TMPRSS4 (11747572_a_at) / Fold change /veh TMPRSS4 (11747572_a_at) / RFU HAMP (11756126_x_at) / Fold change /veh HAMP (11756126_x_at) / RFU RNFT2 (11725882_a_at) / Fold change /veh RNFT2 (11725882_a_at) / RFU NR4A2 (11747474_a_at) / Fold change /veh NR4A2 (11747474_a_at) / RFU ABCC12 (11746883_a_at) / Fold change /veh ABCC12 (11746883_a_at) / RFU TMEM136 (11760407_x_at) / Fold change /veh TMEM136 (11760407_x_at) / RFU CLDN22 /// WWC2 (11732394_at) / Fold change /veh CLDN22 /// WWC2 (11732394_at) / RFU HLA-DPB1 (11760878_x_at) / Fold change /veh HLA-DPB1 (11760878_x_at) / RFU SPINT1 (11716480_a_at) / Fold change /veh SPINT1 (11716480_a_at) / RFU GAP43 (11754022_s_at) / Fold change /veh GAP43 (11754022_s_at) / RFU A4GNT (11735810_at) / Fold change /veh A4GNT (11735810_at) / RFU PRB3 (11715151_x_at) / Fold change /veh PRB3 (11715151_x_at) / RFU TUBB4B (11761932_at) / Fold change /veh TUBB4B (11761932_at) / RFU CAPN14 (11732068_a_at) / Fold change /veh CAPN14 (11732068_a_at) / RFU TMCC2 (11721928_a_at) / Fold change /veh TMCC2 (11721928_a_at) / RFU IRGQ (11745062_a_at) / Fold change /veh IRGQ (11745062_a_at) / RFU FAM174B (11720279_a_at) / Fold change /veh FAM174B (11720279_a_at) / RFU TMPRSS4 (11748680_a_at) / Fold change /veh TMPRSS4 (11748680_a_at) / RFU FAM212B (11763350_a_at) / Fold change /veh FAM212B (11763350_a_at) / RFU PLEKHG5 (11743358_a_at) / Fold change /veh PLEKHG5 (11743358_a_at) / RFU ZSCAN30 (11745921_a_at) / Fold change /veh ZSCAN30 (11745921_a_at) / RFU CMKLR1 (11741424_a_at) / Fold change /veh CMKLR1 (11741424_a_at) / RFU LOC101060620 /// MAPK8IP1 (11723275_at) / Fold change /veh LOC101060620 /// MAPK8IP1 (11723275_at) / RFU SPTSSB (11747773_x_at) / Fold change /veh SPTSSB (11747773_x_at) / RFU PRSS12 (11739890_at) / Fold change /veh PRSS12 (11739890_at) / RFU BIN1 (11741810_x_at) / Fold change /veh BIN1 (11741810_x_at) / RFU WNT11 (11732464_a_at) / Fold change /veh WNT11 (11732464_a_at) / RFU C10orf10 (11716521_a_at) / Fold change /veh C10orf10 (11716521_a_at) / RFU C5orf56 (11738089_at) / Fold change /veh C5orf56 (11738089_at) / RFU CYB561 (11721691_x_at) / Fold change /veh CYB561 (11721691_x_at) / RFU ANKRD19P (11752326_a_at) / Fold change /veh ANKRD19P (11752326_a_at) / RFU OR2T12 /// OR2T33 /// OR2T8 (11738714_s_at) / Fold change /veh OR2T12 /// OR2T33 /// OR2T8 (11738714_s_at) / RFU VCAN (11748164_a_at) / Fold change /veh VCAN (11748164_a_at) / RFU JSRP1 (11732532_at) / Fold change /veh JSRP1 (11732532_at) / RFU KRTAP10-11 (11738290_x_at) / Fold change /veh KRTAP10-11 (11738290_x_at) / RFU MYO3A (11730013_a_at) / Fold change /veh MYO3A (11730013_a_at) / RFU EBF3 (11725865_a_at) / Fold change /veh EBF3 (11725865_a_at) / RFU CAMK2N1 (11719241_x_at) / Fold change /veh CAMK2N1 (11719241_x_at) / RFU C5orf56 (11738088_a_at) / Fold change /veh C5orf56 (11738088_a_at) / RFU OLFML3 (11715873_a_at) / Fold change /veh OLFML3 (11715873_a_at) / RFU LOC100653217 /// NTM (11731650_a_at) / Fold change /veh LOC100653217 /// NTM (11731650_a_at) / RFU MAPK11 (11762145_a_at) / Fold change /veh MAPK11 (11762145_a_at) / RFU FIZ1 (11724087_x_at) / Fold change /veh FIZ1 (11724087_x_at) / RFU OASL (11726364_x_at) / Fold change /veh OASL (11726364_x_at) / RFU SOX15 (11748057_x_at) / Fold change /veh SOX15 (11748057_x_at) / RFU CD79A (11719716_a_at) / Fold change /veh CD79A (11719716_a_at) / RFU HIST1H1D (11736915_at) / Fold change /veh HIST1H1D (11736915_at) / RFU CASKIN2 (11723855_a_at) / Fold change /veh CASKIN2 (11723855_a_at) / RFU LOC730098 (11760151_x_at) / Fold change /veh LOC730098 (11760151_x_at) / RFU OR4N2 (11742367_at) / Fold change /veh OR4N2 (11742367_at) / RFU PRRT2 (11749266_a_at) / Fold change /veh PRRT2 (11749266_a_at) / RFU SNX32 (11753110_a_at) / Fold change /veh SNX32 (11753110_a_at) / RFU CDHR5 (11726645_a_at) / Fold change /veh CDHR5 (11726645_a_at) / RFU RCAN1 (11760418_a_at) / Fold change /veh RCAN1 (11760418_a_at) / RFU FAM167A (11723789_a_at) / Fold change /veh FAM167A (11723789_a_at) / RFU FAM26E (11764081_at) / Fold change /veh FAM26E (11764081_at) / RFU ISYNA1 (11749810_s_at) / Fold change /veh ISYNA1 (11749810_s_at) / RFU ACY1 (11761880_at) / Fold change /veh ACY1 (11761880_at) / RFU 11764098_at / Fold change /veh 11764098_at / RFU SAMD14 (11745864_x_at) / Fold change /veh SAMD14 (11745864_x_at) / RFU NPB (11741838_a_at) / Fold change /veh NPB (11741838_a_at) / RFU TMPRSS6 (11731388_a_at) / Fold change /veh TMPRSS6 (11731388_a_at) / RFU KRTAP10-2 (11738614_at) / Fold change /veh KRTAP10-2 (11738614_at) / RFU ARHGAP8 /// PRR5-ARHGAP8 (11727945_x_at) / Fold change /veh ARHGAP8 /// PRR5-ARHGAP8 (11727945_x_at) / RFU KRTAP5-7 /// NADSYN1 (11734609_at) / Fold change /veh KRTAP5-7 /// NADSYN1 (11734609_at) / RFU RASL12 (11751679_a_at) / Fold change /veh RASL12 (11751679_a_at) / RFU CDKN2B (11736163_a_at) / Fold change /veh CDKN2B (11736163_a_at) / RFU PRF1 (11729649_at) / Fold change /veh PRF1 (11729649_at) / RFU, ZNF638 /// ZNF638-IT1 / Fold change vs veh, ZNF638 /// ZNF638-IT1 / RFU, PANK3 / Fold change vs veh, PANK3 / RFU, SH3YL1 / Fold change vs veh, SH3YL1 / RFU, ZEB2 / Fold change vs veh, ZEB2 / RFU, NRIP1 / Fold change vs veh, NRIP1 / RFU, PTTG1IP / Fold change vs veh, PTTG1IP / RFU, CAPN2 / Fold change vs veh, CAPN2 / RFU, MED14 / Fold change vs veh, MED14 / RFU, SNORA58 / Fold change vs veh, SNORA58 / RFU, C1orf63 / Fold change vs veh, C1orf63 / RFU, LRRFIP1 / Fold change vs veh, LRRFIP1 / RFU, NDUFAF7 / Fold change vs veh, NDUFAF7 / RFU, SLC12A2 / Fold change vs veh, SLC12A2 / RFU, IBTK / Fold change vs veh, IBTK / RFU, ESF1 / Fold change vs veh, ESF1 / Fold change vs veh, TMEM50B / RFU, TAOK1 / Fold change vs veh, TAOK1 / RFU, ACBD3 / Fold change vs veh, ACBD3 / RFU, TMA16 / Fold change vs veh, TMA16 / RFU, RWDD3 / Fold change vs veh, RWDD3 / RFU, BCAT1 / Fold change vs veh, BCAT1 / RFU, EDEM3 / Fold change vs veh, EDEM3 / RFU, TMEM33 / Fold change vs veh, TMEM33 / RFU, WDR75 / Fold change vs veh, WDR75 / RFU, AHCTF1 / Fold change vs veh, AHCTF1 / RFU, TFRC / Fold change vs veh, TFRC / RFU, ZDHHC17 / Fold change vs veh, ZDHHC17 / RFU, NOM1 / Fold change vs veh, NOM1 / RFU, ARL8B / Fold change vs veh, ARL8B / RFU, ZBTB11 / Fold change vs veh, ZBTB11 / RFU, TAMM41 / Fold change vs veh, TAMM41 / RFU, KIAA1704 /// LOC100996395 / Fold change vs veh, KIAA1704 /// LOC100996395 / RFU, ING1 / Fold change vs veh, ING1 / RFU, TRMT61B / Fold change vs veh, TRMT61B / RFU, FUBP3 / Fold change vs veh, FUBP3 / RFU, TP53 / Fold change vs veh, TP53 / RFU, TNKS2 / Fold change vs veh, TNKS2 / RFU, ZFP14 / Fold change vs veh, ZFP14 / RFU, ACTR2 / Fold change vs veh, ACTR2 / RFU, PPP3R1 / Fold change vs veh, PPP3R1 / RFU, PIK3R1 / Fold change vs veh, PIK3R1 / RFU, HNRNPA1 / Fold change vs veh, HNRNPA1 / RFU, RNF170 / Fold change vs veh, RNF170 / RFU, ZNF28 / Fold change vs veh, ZNF28 / RFU, RNGTT / Fold change vs veh, RNGTT / RFU, OGT / Fold change vs veh, OGT / RFU, BRD1 / Fold change vs veh, BRD1 / RFU, MARS / Fold change vs veh, MARS / RFU, ZNF655 / Fold change vs veh, ZNF655 / RFU, FAHD1 / Fold change vs veh, FAHD1 / RFU, BDP1 / Fold change vs veh, BDP1 / RFU, LRRCC1 / Fold change vs veh, LRRCC1 / RFU, ARID1A / Fold change vs veh, ARID1A / RFU, ZNF146 / Fold change vs veh, ZNF146 / RFU, ZNF330 / Fold change vs veh, ZNF330 / RFU, GPN3 / Fold change vs veh, GPN3 / RFU, C9orf123 / Fold change vs veh, C9orf123 / RFU, N4BP2L2 / Fold change vs veh, N4BP2L2 / RFU, ARFIP1 / Fold change vs veh, ARFIP1 / RFU, FAM179B / Fold change vs veh, FAM179B / RFU, BCL10 / Fold change vs veh, BCL10 / RFU, UHRF1BP1L / Fold change vs veh, UHRF1BP1L / RFU, BET1 / Fold change vs veh, BET1 / RFU, CNOT2 / Fold change vs veh, CNOT2 / RFU, ZNF268 / Fold change vs veh, ZNF268 / Fold change vs veh, ZNF507 / RFU, DGCR2 / Fold change vs veh, DGCR2 / RFU, WDSUB1 / Fold change vs veh, WDSUB1 / Fold change vs veh, HSP90B1 /// MIR3652 / RFU, ADSS / Fold change vs veh, ADSS / RFU, GK / Fold change vs veh, GK / RFU, ZNF148 / Fold change vs veh, ZNF148 / RFU, TAF9 / Fold change vs veh, TAF9 / RFU, SLC1A5 / Fold change vs veh, SLC1A5 / RFU, SLMO2 / Fold change vs veh, SLMO2 / RFU, ABCC4 / Fold change vs veh, ABCC4 / RFU, LOC101060439 /// RAP1B / Fold change vs veh, LOC101060439 /// RAP1B / RFU, RFX7 / Fold change vs veh, RFX7 / RFU, GTPBP10 / Fold change vs veh, GTPBP10 / RFU, CNEP1R1 / Fold change vs veh, CNEP1R1 / RFU, BIVM-ERCC5 /// ERCC5 / Fold change vs veh, BIVM-ERCC5 /// ERCC5 / RFU, ILF3 / Fold change vs veh, ILF3 / RFU 11762660_at / Fold change /veh 11762660_at / RFU VCAN (11757783_s_at) / Fold change /veh VCAN (11757783_s_at) / RFU DDX43 (11728927_at) / Fold change /veh DDX43 (11728927_at) / RFU KRT8 (11758188_x_at) / Fold change /veh KRT8 (11758188_x_at) / RFU NKD1 (11759106_at) / Fold change /veh NKD1 (11759106_at) / RFU SRD5A1 (11742802_a_at) / Fold change /veh SRD5A1 (11742802_a_at) / RFU TPSAB1 /// TPSB2 (11721975_s_at) / Fold change /veh TPSAB1 /// TPSB2 (11721975_s_at) / RFU GSTM3 (11746129_a_at) / Fold change /veh GSTM3 (11746129_a_at) / RFU IL23R (11737362_x_at) / Fold change /veh IL23R (11737362_x_at) / RFU TMEM51 (11727254_a_at) / Fold change /veh TMEM51 (11727254_a_at) / RFU PIWIL2 (11732686_x_at) / Fold change /veh PIWIL2 (11732686_x_at) / RFU ORM1 (11744905_x_at) / Fold change /veh ORM1 (11744905_x_at) / RFU CCDC152 (11743942_at) / Fold change /veh CCDC152 (11743942_at) / RFU ECM1 (11717891_a_at) / Fold change /veh ECM1 (11717891_a_at) / RFU IL23R (11748794_a_at) / Fold change /veh IL23R (11748794_a_at) / RFU TNFAIP8L3 (11732012_x_at) / Fold change /veh TNFAIP8L3 (11732012_x_at) / RFU MBOAT4 (11741988_at) / Fold change /veh MBOAT4 (11741988_at) / RFU 11764193_at / Fold change /veh 11764193_at / RFU TMEM53 (11763286_at) / Fold change /veh TMEM53 (11763286_at) / RFU MAGEB2 (11727129_at) / Fold change /veh MAGEB2 (11727129_at) / RFU TMEM200A (11744735_a_at) / Fold change /veh TMEM200A (11744735_a_at) / RFU CCDC152 (11751479_a_at) / Fold change /veh CCDC152 (11751479_a_at) / RFU FAM211A (11726209_a_at) / Fold change /veh FAM211A (11726209_a_at) / RFU RGS16 (11746705_a_at) / Fold change /veh RGS16 (11746705_a_at) / RFU VCAN (11755009_s_at) / Fold change /veh VCAN (11755009_s_at) / RFU RHOB (11743442_s_at) / Fold change /veh RHOB (11743442_s_at) / RFU RGS16 (11720943_a_at) / Fold change /veh RGS16 (11720943_a_at) / RFU RGS16 (11720944_at) / Fold change /veh RGS16 (11720944_at) / RFU, VPS4B / Fold change vs veh, VPS4B / RFU, CREB1 / Fold change vs veh, CREB1 / RFU, DNAJC13 / Fold change vs veh, DNAJC13 / RFU, GNAQ / Fold change vs veh, GNAQ / RFU, CDK5R1 / Fold change vs veh, CDK5R1 / RFU, ZRANB3 / Fold change vs veh, ZRANB3 / RFU, CUL4A / Fold change vs veh, CUL4A / RFU, CCNY / Fold change vs veh, CCNY / RFU, UFL1 / Fold change vs veh, UFL1 / RFU, COG3 / Fold change vs veh, COG3 / RFU, DIAPH2 / Fold change vs veh, DIAPH2 / RFU, SKA2 / Fold change vs veh, SKA2 / RFU, AFF3 / Fold change vs veh, AFF3 / RFU, LMF1 / Fold change vs veh, LMF1 / RFU, IPO11 / Fold change vs veh, IPO11 / RFU, DFFB / Fold change vs veh, DFFB / RFU, FOXP1 / Fold change vs veh, FOXP1 / RFU, CARD8 / Fold change vs veh, CARD8 / RFU, STRN3 / Fold change vs veh, STRN3 / RFU, ADK / Fold change vs veh, ADK / RFU, RASSF2 / Fold change vs veh, RASSF2 / RFU, WIPF1 / Fold change vs veh, WIPF1 / RFU, LARP1B / Fold change vs veh, LARP1B / RFU, RASA1 / Fold change vs veh, RASA1 / RFU, RB1 / Fold change vs veh, RB1 / RFU, PPFIA1 / Fold change vs veh, PPFIA1 / RFU, MAT2A / Fold change vs veh, MAT2A / RFU, CCT5 / Fold change vs veh, CCT5 / RFU, WDR92 / Fold change vs veh, WDR92 / RFU, CUX1 / Fold change vs veh, CUX1 / RFU, TTC7A / Fold change vs veh, TTC7A / RFU, TMEM135 / Fold change vs veh, TMEM135 / RFU, DEPTOR / Fold change vs veh, DEPTOR / RFU, CPM / Fold change vs veh, CPM / RFU, DNAJB6 / Fold change vs veh, DNAJB6 / RFU, CACNA2D3 / Fold change vs veh, CACNA2D3 / RFU, DTX4 / Fold change vs veh, DTX4 / RFU, TFCP2 / Fold change vs veh, TFCP2 / RFU, GMCL1 /// GMCL1P1 / Fold change vs veh, GMCL1 /// GMCL1P1 / RFU, AEBP2 / Fold change vs veh, AEBP2 / RFU, SNHG1 /// SNORD22 /// SNORD25 /// SNORD26 /// SNORD27 /// SNORD28 /// SNORD29 /// SNORD31 / Fold change vs veh, SNHG1 /// SNORD22 /// SNORD25 /// SNORD26 /// SNORD27 /// SNORD28 /// SNORD29 /// SNORD31 / Fold change (Aza/veh), C12orf56 (ProbeSet 11735607_a_at) / Fold change (ACY-1035/veh), C12orf56 (ProbeSet 11735607_a_at) / Fold change (Aza/veh), FGFR1OP (ProbeSet 11751329_s_at) / Fold change (ACY-1035/veh), FGFR1OP (ProbeSet 11751329_s_at) / Fold change (Aza/veh), VPS36 (ProbeSet 11739960_a_at) / Fold change (ACY-1035/veh), VPS36 (ProbeSet 11739960_a_at) / RFU SYPL1 (11715823_x_at) / Fold change /veh SYPL1 (11715823_x_at) / RFU IGFBP7 (11715501_s_at) / Fold change /veh IGFBP7 (11715501_s_at) / RFU REEP3 (11722064_at) / Fold change /veh REEP3 (11722064_at) / RFU IGLL1 (11728026_x_at) / Fold change /veh IGLL1 (11728026_x_at): dose or concentration left out as unconfirmed
Conditions: ProbeSet 11757268_x_at; LIST B

SMILES: Nc1ncn([C@@H]2O[C@H](CO)[C@@H](O)[C@H]2O)c(=O)n1 [azacitidine]
- Fold change vs veh, HNRNPA1: 0.91
